Laboratory results as given in US12239132B2, “Compounds and methods for increasing soil nutrient availability” (SOUND AGRICULTURE COMPANY, priority 2018, dated 2025).

What was measured:
Format in all cases: cell-based
[1] = tested on: innate soil microbes; assay: Phosphate solubilization in commercial potting soil, sterile vs non-sterile; conditions: 12 days
Protocol: In some aspects, a compound disclosed herein, e.g., AB09, stimulates phosphate solubilization of innate soil microbes. The induced phosphate solubilization enhancement was tested for in plant-free soil, which contains an innate diverse microflora of bacteria and fungi. Soil was evenly distributed into pots, half of which were pressure-sterilized in an autoclave. Half of the sterile and half of the non-sterile soil received a treatment. Control pots received a mock treatment. Pots were covered, incubated at room temperature, and orthophosphate levels were measured after twelve days. […] Three replicates of 20 mg air dried soil were measured from each pot and placed into 1.5 mL eppendorf tubes. […] In some instances, disclosed herein are measured phosphate levels at 12 days post treatment. […]
The effect of AB09 on a soil microbiome's innate ability to solubilize phosphorus was tested using commercially available soil, which contains a diverse microflora of bacteria. […] After 12 days of incubation soil phosphorus was extracted using the Bray-1P method and quantified using the malachite green assay.
Phosphate levels at 12 days post treatment. […] Orthophosphate was measured using the malachite-green phosphate method.
Orthophosphate was measured using the malachite-green phosphate method (BioAssay Systems Malachite Green Phosphate Assay Kit Catalog No: POMG-25H). […] Data are quantified on a plate reader at 620 nm. […]

[2] = tested on: Azotobacter vinlandii; assay: Acetylene reduction method to measure nitrogen fixation in Azotobacter vinlandii; conditions: increasing amounts of AB09, Burks-N media, 48 h growth, dose response
Text: Azotobacter vinlandii is a model free-living nitrogen fixing bacteria, or diazotroph, commonly found in soils. The acetylene reduction technique was used to determine if the nitrogen fixation activity of A. vinlandii is altered due to AB09 treatment. The acetylene reduction technique relies on the non-specific activity of the nitrogenase enzyme (which is responsible for reducing atmospheric dinitrogen gas N2 to ammonia NH3), to reduce acetylene to ethylene. Acetylene and ethylene gases were detected and quantified by GC/MS.
Liquid flask cultures of A. vinlandii were grown in nitrogen-free growth media (Burks-N) and supplemented with varying amounts of AB09 (0 ug/mL culture received a mock treatment of water). Samples were analyzed for acetylene reduction to ethylene after 48 h of growth (cell concentration was normalized prior to the addition of acetylene).
Azotobacter vinlandii cultures starting from OD600=0.02 were grown in liquid N-free bacterial growth media (Burks-N) with varying amounts of AB09 shaking at 28 C. Three flasks of bacteria were grown for each concentration of AB09. After 48 h, cultures were normalized OD600=0.1 and 5 mL of the normalized culture was transferred to gas-tight autosampler vials. […] After 3 hours of incubation (with shaking at 28 C), the gas headspace of the vials was measured via GC/MS for acetylene and ethylene. […]

[3] = tested on: nif operon structural genes (nifH, nifD, and nifK); assay: RNA-seq of Azotobacter vinlandii; conditions: 25 ug/mL, nitrogen free media, 48 h, RNA-seq (FPKM)
Protocol: Global gene expression profiles of Azotobacter vinlandii grown in nitrogen free media were compared with and without AB09 treatment using RNA sequencing (RNA-seq).
A starter liquid culture of A. vinlandii in Burks-N media (at OD600=0.02) was divided into six flasks. Three flasks received AB09 at 25 ug/mL and three received a mock treatment. RNA was collected at 48 h of growth. One mL of 48 h cultures of Azotobacter vinlandii were pelleted for 3 minutes as 13,000 rpm. Supernatant was removed and pellets were flash frozen in liquid nitrogen. RNA was extracted with the Norgen RNA extraction kit. Ribo-depletion and sequencing libraries were constructed by Seqmatic, Inc. (Fremont, CA). Illumina single-end reads of 150 nt were mapped using bowtie (-v 2 -k2 -chunkmbs 3000) to the Azotobacter vinelandii CA (ASM38033v1) cds sequences. Custom perl scripts were used to extract the uniquely mapped reads and calculate the read count per million mapped reads (multi and uniquely mapped) per kilobase of gene for each gene.

SMILES: CC1=CC(Oc2c(C)occc2=O)OC1=O (stereo not shown) [AB09, maltol lactone]
- level of orthophosphate in non-sterile soil ([1]; 24 ug/mL in 1% DMSO, 25 mL per pot, Bray-P1 extraction, vs non-sterile control): significantly increased
- AB09-induced phosphorus enhancement in sterile soil ([1]; autoclaved soil, 24 ug/mL): not observed
- ethylene gas from acetylene reduction (nitrogenase activity) [2]: increased amounts of ethylene gas
- expression of nif operon structural genes nifH, nifD and nifK over control cultures [3]: increase
